Test system: Metabolism protein genes
Assay: DNA chip mRNA expression in yeast, metabolism protein genes (Table 7)
Type: cell-based, Saccharomyces cerevisiae S288C
Experimental: Yeast (Saccharomyces cerevisiae S288C (α SUC2mal mel gap2 CUP1)) were incubated at 25° C. on YPD medium (yeast extract 1%, polypepton 2%, glucose 2%). One of toxic chemical substances was added to the cells at logarithmic growth phase, and the cells were further incubated for two hours. Cells were cultured without any chemical substance in the same condition, and were used as control. Concentrations of the chemical substances were defined to inhibit the growth of the yeast but not lead to death.
After completion of the incubation, the culture was centrifuged to collect the cells. To the cells, sodium acetate buffer (50 mM sodium acetate, 10 mM EDTA, 1% SDS) was added, and the mixture was shaken at 65° C. for five minutes, followed by returning to room temperature, and obtaining the supernatant, of which the procedures were repeated two times. To the supernatant, ½ amount of a solution of phenol/chloroform was added, and the mixture was centrifuged to give a supernatant, which was added with an equal amount of chloroform, and the mixture was centrifuged to give a supernatant. To the supernatant, an equal amount of isopropanol containing 0.3 M sodium acetate was added, and the mixture was allowed to stand at room temperature for 30 minutes, after which the mixture was centrifuged to give a sediment of the whole RNAs. Seventy % ethanol was added to the sediment, and the mixture was again centrifuged to give a sediment, which was then dried and dissolved in water. mRNA was isolated from the whole RNAs as followings. In view of the fact that a poly A chain is attached to the 3′ terminus of mRNA, a polynucleotide having a poly T structure which was immobilized on the surface of latex beads was used to trap the mRNA, and then the mRNA was washed and eluted with spine column (Oligotex-dT30<Super>mRNA Purification Kit, Takara). Reverse transcription of the mRNA was conducted with a reverse transcriptase (Super Script II Reverse Transcriptase; catalogue No. 18064-014, GibcoBRL) using fluorescence-labeled nucleotides to give cDNAs that were introduced with Cy3-dUTP or Cy5-dUTP during the reverse transcription.
The labeled cDNAs were dissolved in TE buffer (10mM Tris-HCl/1 mM EDTA, pH8.0), and the solution was dropped on the DNA chip containing the whole genes of yeast (DNA Chip Research Inc. Japan) so that the cDNAs were hybridized on the DNA chip at 65° C. for over 12 hours. The fluoresces intensity of the DNA chip was read with a scanner, and the ratio relative to the fluorescence intensity resulting from the absence of chemical substance was estimated as the following, which is shown in Tables 1 to 9: […]

C[S+](C)[O-] [(15), dimethylsulfoxide]
level of expressed mRNA in the presence/in the absence of chemical substance (yeast gene YER081W): 0.5 | The level of expressed mRNA in the presence of chemical substance/The level of expressed mRNA in the absence of chemical substance (yeast gene YER096W): 1.4 | level of expressed mRNA in the presence/in the absence of chemical substance (yeast gene YER120W): 1.5 | The level of expressed mRNA in the presence of chemical substance/The level of expressed mRNA in the absence of chemical substance (yeast gene YER178W): 1.8 | level of expressed mRNA in the presence/in the absence of chemical substance (yeast gene YFL011W): 1.7 | The level of expressed mRNA in the presence of chemical substance/The level of expressed mRNA in the absence of chemical substance (yeast gene YFL014W): 6.3 | The level of expressed mRNA in the presence of chemical substance/The level of expressed mRNA in the absence of chemical substance (yeast gene YFL030W): 1.1 | The level of expressed mRNA in the presence of chemical substance/The level of expressed mRNA in the absence of chemical substance (yeast gene YFL056C): 5.0 | The level of expressed mRNA in the presence of chemical substance/The level of expressed mRNA in the absence of chemical substance (yeast gene YFR015C): 0.4 | The level of expressed mRNA in the presence of chemical substance/The level of expressed mRNA in the absence of chemical substance (yeast gene YFR047C): 0.6 | The level of expressed mRNA in the presence of chemical substance/The level of expressed mRNA in the absence of chemical substance (yeast gene YGL001C): 0.9 | level of expressed mRNA in the presence/in the absence of chemical substance (yeast gene YGL012W): 0.6 | The level of expressed mRNA in the presence of chemical substance/The level of expressed mRNA in the absence of chemical substance (yeast gene YGL022W): 4.0 | The level of expressed mRNA in the presence of chemical substance/The level of expressed mRNA in the absence of chemical substance (yeast gene YGL104C): 0.9 | level of expressed mRNA in the presence/in the absence of chemical substance (yeast gene YGL115W): 0.7 | The level of expressed mRNA in the presence of chemical substance/The level of expressed mRNA in the absence of chemical substance (yeast gene YGL126W): 2.8 | The level of expressed mRNA in the presence of chemical substance/The level of expressed mRNA in the absence of chemical substance (yeast gene YGL154C): 0.8 | level of expressed mRNA in the presence/in the absence of chemical substance (yeast gene YGL205W): 2.0 | The level of expressed mRNA in the presence of chemical substance/The level of expressed mRNA in the absence of chemical substance (yeast gene YGL248W): 1.8 | The level of expressed mRNA in the presence of chemical substance/The level of expressed mRNA in the absence of chemical substance (yeast gene YGL253W): 0.8 | The level of expressed mRNA in the presence of chemical substance/The level of expressed mRNA in the absence of chemical substance (yeast gene YGR037C): 1.5 | The level of expressed mRNA in the presence of chemical substance/The level of expressed mRNA in the absence of chemical substance (yeast gene YGR060W): 1.4 | level of expressed mRNA in the presence/in the absence of chemical substance (yeast gene YGR096W): 0.9 | level of expressed mRNA in the presence/in the absence of chemical substance (yeast gene YGR191W): 1.5 | The level of expressed mRNA in the presence of chemical substance/The level of expressed mRNA in the absence of chemical substance (yeast gene YGR194C): 0.6 | level of expressed mRNA in the presence/in the absence of chemical substance (yeast gene YGR204W): 1.6 | level of expressed mRNA in the presence/in the absence of chemical substance (yeast gene YGR288W): 0.8 | level of expressed mRNA in the presence/in the absence of chemical substance (yeast gene YHR025W): 2.1 | The level of expressed mRNA in the presence of chemical substance/The level of expressed mRNA in the absence of chemical substance (yeast gene YHR037W): 1.1 | The level of expressed mRNA in the presence of chemical substance/The level of expressed mRNA in the absence of chemical substance (yeast gene YHR092C): 0.2 | The level of expressed mRNA in the presence of chemical substance/The level of expressed mRNA in the absence of chemical substance (yeast gene YHR111W): 1.1 | level of expressed mRNA in the presence/in the absence of chemical substance (yeast gene YHR123W): 2.3 | The level of expressed mRNA in the presence of chemical substance/The level of expressed mRNA in the absence of chemical substance (yeast gene YHR137W): 2.8 | The level of expressed mRNA in the presence of chemical substance/The level of expressed mRNA in the absence of chemical substance (yeast gene YHR174W): 2.0 | The level of expressed mRNA in the presence of chemical substance/The level of expressed mRNA in the absence of chemical substance (yeast gene YHR176W): 1.5 | The level of expressed mRNA in the presence of chemical substance/The level of expressed mRNA in the absence of chemical substance (yeast gene YHR190W): 1.3 | level of expressed mRNA in the presence/in the absence of chemical substance (yeast gene YHR210C): 0.5 | level of expressed mRNA in the presence/in the absence of chemical substance (yeast gene YIL006W): 1.5 | The level of expressed mRNA in the presence of chemical substance/The level of expressed mRNA in the absence of chemical substance (yeast gene YIL033C): 1.0 | The level of expressed mRNA in the presence of chemical substance/The level of expressed mRNA in the absence of chemical substance (yeast gene YIL045W): 0.6 | The level of expressed mRNA in the presence of chemical substance/The level of expressed mRNA in the absence of chemical substance (yeast gene YIL107C): 1.0 | The level of expressed mRNA in the presence of chemical substance/The level of expressed mRNA in the absence of chemical substance (yeast gene YIL154C): 4.3 | The level of expressed mRNA in the presence of chemical substance/The level of expressed mRNA in the absence of chemical substance (yeast gene YIL155C): 1.4 | The level of expressed mRNA in the presence of chemical substance/The level of expressed mRNA in the absence of chemical substance (yeast gene YIL167W): 0.6 | The level of expressed mRNA in the presence of chemical substance/The level of expressed mRNA in the absence of chemical substance (yeast gene YIR036C): 1.1
